According to publication PMC10813862, “Gαi2 Protein Inhibition Blocks Chemotherapy- and Anti-Androgen-Induced Prostate Cancer Cell Migration” (Cancers, 2024):
Where “and” joins values, the source holds several entries; their conditions need not be identical. Identical values can stand only once.

Columns and labels:
[1] = test system: LNCaP cells; assay: transwell migration assay, LNCaP cells; assay type: cell-based, human; details: for effect on LNCaP cell migration (migration index): drug alone at several concentrations; for effect on LNCaP cell migration (migration index) / concentration of maximum induction of LNCaP cell migration: 24 h; for concentration of maximum induction of LNCaP cell migration: drug alone
Description: (§1) In vitro transwell migration assays were conducted as described previously. Briefly, the outside of the transwell inserts (BD Biosciences, San Jose, CA, USA) were coated with 50 µL of rat tail collagen (50 μg/mL; BD Biosciences, San Jose, CA, USA) overnight at 4 °C. The next day, 50 μL of the aforementioned rat tail collagen was added for 1 h at room temperature into the transwell inserts to coat the inside of the membranes. DU145, PC3 and LNCaP cells were trypsinized and suspended at the appropriate density (3 × 10^5 cells/insert for DU145 and PC3, and 5 × 10^5 cells/insert for LNCaP) in MEM or RPMI containing 0.2% BSA (Sigma-Aldrich, St. Louis, MO, USA). Chemoattractant solution, used as the positive control, was made by diluting the epidermal growth factor (EGF) (10 ng/mL) into MEM (PC3 and DU145) or RPMI (LNCaP) supplemented with 0.2% BSA. Media containing 0.2% BSA served as a control. Control and EGF solutions (400 μL) were added into the wells of a 24-well plate. Aliquots of 100 μL of cell suspensions, treated with or without the different compounds at several concentrations, were loaded into the transwell inserts, and the plates were incubated at 37 °C for 5 h (DU145 and PC3) or 24 h (LNCaP). The cells inside the transwell inserts were removed by cotton swabs, and the cleaned inserts were fixed with 350 μL of 4% paraformaldehyde (pH 7.5) for 20 min at room temperature. Cells that had migrated to the outside of the transwell insert membrane were stained with 3 ng/mL of DAPI solution (Thermo Fisher Scientific, Eugene, OR, USA), and images of five non-overlapping fields were captured using an Axiovert 200M, Carl Zeiss (Thornwood, NY, USA) microscope. The number of stained nuclei were determined with automatic counting using image analysis software (ZEN 2012 (blue edition, Version 1.1.1.0); Carl Zeiss Microscopy GmbH, Oberkochen, Germany). The results were expressed as a migration index defined as the average number of cells per field for test substance/the average number of cells per field for the medium control.

[2] = test system: Gαi2 protein; assay: Western blot of Gαi2 protein levels in LNCaP cells; assay type: cell-based, human; details: 24 h; enzalutamide 2.5 μM, bicalutamide 2.5 μM, SBI-I-19 2 μM, SAHA 4 μM
Description: (§2) Docetaxel, a taxoid anti-cancer agent, was purchased from Millipore-Sigma and dissolved in DMSO at a starting concentration of 100 μM. SAHA, a commercially available FDA-approved HDACi, was purchased from Sigma-Aldrich (St. Louis, MO, USA) and dissolved in DMSO at a starting concentration of 100 mM. SBI-I-19, an HDAC inhibitor conjugated with anti-androgen, was dissolved in DMSO at a starting concentration of 50 mM. The anti-androgen drugs enzalutamide and bicalutamide were purchased from Selleckchem (Houston, TX, USA) and Sigma-Aldrich, respectively. Anti-androgens were prepared at a stock concentration of 100 mM (enzalutamide) and 10 mM (bicalutamide) in DMSO. The Gαi2 inhibitor (compound 14) was diluted in DMSO at a stock concentration of 100 mM, as previously described. All drugs used in the study were then diluted in the culture media to the final concentrations used in various assays. To determine the effects of specific treatments on the levels of Gαi2 protein, LNCaP and PC3 cells (10^6 cells) were cultured overnight in 10 cm^2 culture dishes. The cells were then treated with anti-androgens and other agents for 24 h and the total cell lysates were collected for Western blot analyses.
Western blot analyses were performed as described previously. Briefly, cell lysates were mixed with Laemmeli’s buffer (62.5 mM Tris, pH 6.8, 2% sodium dodecyl sulfate, 5% β–mercaptoethanol and 10% glycerol). Samples (30–35 µg proteins) were separated on 10% SDS-PAGE gels and transferred to polyvinylidene difluoride (PVDF) membranes (Millipore Corp., Bedford, MA, USA). After blocking the membranes with 5% fat-free milk in TBST (50 mM Tris, pH 7.5, containing 0.15 M NaCl, and 0.05% Tween 20) for 1 h at room temperature, the membranes were incubated with specific primary antibodies at appropriate dilutions (1:5000 for Gαi2; 1:3000 for α-tubulin) overnight at 4 °C. After washing, the blots were incubated with appropriate secondary antibodies. The blots were then developed in Millipore Luminata Forte (EMD Millipore) for 5 min and visualized using a BioRad ChemiDoc Imaging System, according to the manufacturer’s instructions. The density of specific protein bands was determined using ImageJ 1.53 K image analyses software.

[3] = test system: DU145 cells; assay: transwell migration assay, DU145 cells; assay type: cell-based, human; details: drug alone, AR-negative cells
Description: as §1

[4] = test system: LNCaP cells; assay: MTS viability, LNCaP cells; assay type: cell-based; details: Homo sapiens, 72 h, n=3
Description: (§3) Figure S1A. Effects of compounds 3- 7, 10, 12, 13 and 15 on the viability of LNCaP,
(§4) MDA-MD-231, MCF-7 and Vero cells. The cells are incubated with the drugs for 72 h
(§5) and viability evaluated with MTS. NI = IC50 greater than 100 μM. n=3
(§6) Compound LNCaP (µM) MDA-MB-231 (µM) MCF-7 (µM) Vero (µM)

[5] = test system: PC3 cells; assay: transwell migration assay, PC3 cells; assay type: cell-based, human; details: for effect on PC3 cell migration (migration index): compound alone, concentration range 0.1 to 100 μM, 5 h, compared with 14; for PC3 cell migration in combination with SAHA or docetaxel: Gαi2 inhibitor at 20 μM, in combination with either SAHA or docetaxel; for effect of chemotherapeutic drugs on PC3 cell migration: drug alone, AR-negative cells
Description: as §1

[6] = test system: MCF-7 cells; assay: MTS viability, MCF-7 cells; assay type: cell-based; details: Homo sapiens, MCF7, 72 h, n=3
Description: as §3, §4, §5, §6

[7] = test system: MDA-MB-231 cells; assay: MTS viability, MDA-MB-231 cells; assay type: cell-based; details: Homo sapiens, 72 h, n=3
Description: as §3, §4, §5, §6

[8] = test system: Vero cells; assay: MTS viability, Vero cells; assay type: cell-based; details: Chlorocebus sabaeus, 72 h, n=3
Description: as §3, §4, §5, §6

[9] = test system: DU145 cells; set-up: method as in PMID 32575572; details: cited from earlier work
[10] = test system: PC3 cells; set-up: method as in PMID 32575572; details: cited from earlier work
[11] = stability in human liver microsomes; assay type: in vitro ADME; details: read-out: Microsome t1/2, Human
From the text: Table 1 Stability of compounds 6, 7 and 10 in human and mouse plasma and liver microsomes. | column: Microsome (t1/2 = Min) / Human

[12] = stability in mouse plasma; assay type: in vitro ADME; details: read-out: Plasma t1/2, Mouse
From the text: Table 1 Stability of compounds 6, 7 and 10 in human and mouse plasma and liver microsomes. | column: Plasma (t1/2 = Min) / Mouse

[13] = stability in human plasma; assay type: in vitro ADME; details: read-out: Plasma t1/2, Human
From the text: Table 1 Stability of compounds 6, 7 and 10 in human and mouse plasma and liver microsomes. | column: Plasma (t1/2 = Min) / Human

[14] = stability in mouse liver microsomes; assay type: in vitro ADME; details: read-out: Microsome t1/2, Mouse
From the text: Table 1 Stability of compounds 6, 7 and 10 in human and mouse plasma and liver microsomes. | column: Microsome (t1/2 = Min) / Mouse

[15] = test system: Gαi2 protein; assay: Western blot of Gαi2 protein levels in PC3 cells; assay type: cell-based, human; details: 24 h; docetaxel 1 nM
Description: as §2
Western blot analyses were performed as described previously. […] The density of specific protein bands was determined using ImageJ 1.53 K image analyses software.

IC50 [4] [µM]	IC50 [6] [µM]	IC50 [7] [µM]	Compound	effect on PC3 cell migration (migration index) [5]	IC50 [8] [µM]	further results
–	–	–	CC(O)(CS(=O)(=O)c1ccc(F)cc1)C(=O)Nc1ccc(C#N)c(C(F)(F)F)c1 (stereo not shown) [bicalutamide]	–	–	effect on LNCaP cell migration (migration index) [1]: induced a dose-dependent increase in cell migration; concentration of maximum induction of LNCaP cell migration [1]: 2.5 µM; levels of Gαi2 protein in LNCaP cells [2]: increased levels of Gαi2 protein
–	–	–	CC1(C)C(=O)N(c2ccc(C#N)c(C(F)(F)F)c2)C(=O)N1Cc1ccc(-c2cn(CCCCC(=O)NO)nn2)cc1 [SBI-I-19]	–	–	effect on LNCaP cell migration (migration index) [1]: induced a significant dose-dependent increase in cell migration; concentration of maximum induction of LNCaP cell migration [1]: 1 µM and 2 µM; levels of Gαi2 protein in LNCaP cells [2]: increased levels of Gαi2 protein; effect of chemotherapeutic drugs on DU145 cell migration [3]: increased cell migration
> 100	> 100	> 100	Cn1c(CNc2ccc(O)cc2)cc2ccccc21 [Compound 5]	comparable potency	> 100	–
–	–	–	C/C(=N\c1ccc(O)cc1)c1cc2ccccc2n1C [Compound 14]	–	–	EGF-induced migration of DU145 cells [9]: attenuated the EGF-induced migration; effect on docetaxel-induced PC3 cell migration ([5]; compound 14 at 25 μM, simultaneous treatment with docetaxel): blocked the stimulatory effects of docetaxel; effect on HDACi- and anti-androgen-induced LNCaP cell migration ([1]; compound 14 at 25 μM, simultaneous treatment with enzalutamide, bicalutamide, SAHA or SBI-I-19): blocked; EGF-induced migration of PC3 cells [10]: attenuated the EGF-induced migration
> 100	> 100	> 100	CC(Oc1ccc([S+](C)[O-])cc1)c1cc2ccccc2n1C (stereo not shown) [Compound 13]	less effective	> 100	–
43.4 ± 3.9	> 100	> 100	CSc1ccc(NC(C)c2cc3ccccc3n2C)cc1 (stereo not shown) [Compound 7]	more effective relative to 14	> 100	PC3 cell migration in combination with SAHA or docetaxel [5]: decreased significantly PC3 cell migration; half-life [11]: 45 min; half-life [12]: > 120 min; half-life [13]: > 120 min; half-life [14]: < 10 min
> 100	> 100	> 100	CSc1ccc(/N=C(\C)c2cc3ccccc3n2C)cc1 [Compound 4]	concentration dependent reduction of PC3 cell migration, but less efficiently relative to 14	> 100	–
86.8 ± 10.8	75.7 ± 5.3	27.3 ± 4.8	CC(Nc1ccc(O)cc1)c1cc2ccccc2n1C (stereo not shown) [Compound 6]	more effective relative to 14	32.4 ± 1.6	PC3 cell migration in combination with SAHA or docetaxel [5]: decreased significantly PC3 cell migration; half-life [11]: 118 min; half-life [12]: 27 min; half-life [13]: > 120 min; half-life [14]: 47 min
> 100	> 100	> 100	Cn1c(/C=N/c2ccc(O)cc2)cc2ccccc21 [Compound 3]	concentration dependent reduction of PC3 cell migration, but less efficiently relative to 14	> 100	–
–	–	–	CC(=O)O[C@@]12CO[C@@H]1C[C@H](O)[C@@]1(C)C(=O)[C@H](O)C3=C(C)[C@@H](OC(=O)[C@H](O)[C@@H](NC(=O)OC(C)(C)C)c4ccccc4)C[C@@](O)([C@@H](OC(=O)c4ccccc4)[C@H]21)C3(C)C [docetaxel, reference compound]	–	–	effect of chemotherapeutic drugs on PC3 cell migration [5]: induced an increase in cell migration; levels of Gαi2 protein in PC3 cells [15]: had no effect on the levels of Gαi2 protein
–	–	–	CNC(=O)c1ccc(N2C(=S)N(c3ccc(C#N)c(C(F)(F)F)c3)C(=O)C2(C)C)cc1F [enzalutamide]	–	–	effect on LNCaP cell migration (migration index) [1]: induced a dose-dependent increase in cell migration; concentration of maximum induction of LNCaP cell migration [1]: 2.5 µM; levels of Gαi2 protein in LNCaP cells [2]: increased levels of Gαi2 protein; effect of chemotherapeutic drugs on DU145 cell migration [3]: increased cell migration
> 100	> 100	> 100	CC(Oc1ccc(S(C)(=O)=O)cc1)c1cc2ccccc2n1C (stereo not shown) [Compound 12]	less effective	> 100	–
–	–	–	O=C(CCCCCCC(=O)Nc1ccccc1)NO [SAHA]	–	–	effect of chemotherapeutic drugs on PC3 cell migration [5]: induced an increase in cell migration; effect on LNCaP cell migration (migration index) [1]: induced a significant dose-dependent increase in cell migration; concentration of maximum induction of LNCaP cell migration [1]: 0.5 µM and 1 µM; levels of Gαi2 protein in LNCaP cells [2]: induced a reduction in the levels of Gαi2 protein; effect of chemotherapeutic drugs on DU145 cell migration [3]: increased cell migration
> 100	> 100	> 100	CSc1ccc(OC(C)c2cc3ccccc3n2C)cc1 (stereo not shown) [Compound 10]	less potent compared to 7	> 100	PC3 cell migration in combination with SAHA or docetaxel [5]: decreased significantly PC3 cell migration; half-life [11]: 35 min; half-life [12]: > 120 min; half-life [13]: > 120 min; half-life [14]: < 10 min
> 100	> 100	> 100	CC(Oc1ccc(O)cc1)c1cc2ccccc2n1C (stereo not shown) [Compound 15]	did not inhibit the migration of PC3 cells at the maximum concentration tested	> 100	–
